The target in the data set is APOL1. As to conditions: ASO.

Consider 32 sequences from the OligoGym collection.

Where “and” joins values, the source holds several entries; their conditions need not be identical. Equal entries are not always repeated. After the bases stand the sugars from the 5' end (letter, count) and the backbone: PS all phosphorothioate, else s phosphorothioate and o phosphodiester by linkage. Methylation of C is not given here. e = 2'-O-(2-methoxyethyl) (MOE); k = constrained ethyl (cEt); d = 2'-deoxy (DNA)

With “TGTAAGTGCAACCAAT (sugars kkddddkekekkdddd, PS)”, the target mRNA inhibition (A431, 2 µM) worked out at 43%.

The sequence “TGTATTTCTTGATGTG (sugars kkkddddkekeddddd, PS)” yielded a target mRNA inhibition (A431, 2 µM) of 71%.

As to TGTGCTCAGCTATGGA (sugars k4 d9 k3, PS), the target mRNA inhibition is, setting by setting: (A431, 0.0625 µM) 41% and 55%; (A431, 0.25 µM) 70% and 74%; (A431, 1 µM) 88% and 87%.

Consider TGTTATATTTGATCCT (sugars k3 d10 k3, PS), for which the target mRNA inhibition was 67% (A431, 0.0625 µM); 90% (A431, 0.25 µM); 98% (A431, 1 µM).

Regarding “TGTTATATTTGATCCT (sugars kddddkekekeddddd, PS)”, the target mRNA inhibition (A431, 2 µM) is 51%.

“TGTTATATTTGATCCT (sugars kkddddkekekkdddd, PS)”: under “A431, 2 µM”, the target mRNA inhibition worked out at 46%.

For the sequence “TGTTATATTTGATCCT (sugars kkkddddkekeddddd, PS)”, where the note is “A431, 2 µM”, the target mRNA inhibition was found to be 71%.

For TGTTTGCATTTGGGTC (sugars k4 d9 k3, PS), the target mRNA inhibition is, setting by setting: (A431, 0.0625 µM) 90% and 83%; (A431, 0.25 µM) 98% and 94%; (A431, 1 µM) 99% and 96%.

In turn, TTACATGCACGATCTC (sugars k3 d10 k3, PS) registered a target mRNA inhibition (A431, 0.0625 µM) of 18%; a target mRNA inhibition (A431, 0.25 µM) of 56%; a target mRNA inhibition (A431, 1 µM) of 78%.

On to “TTATATTTGATCCTCA (sugars k2 d4 e3 k2 d5, PS)”, for which, where the note is “A431, 2 µM”, the target mRNA inhibition worked out at 96%.

Where the note is “A431, 2 µM”, “TTATATTTGATCCTCA (sugars kkddddkekekddddd, PS)” gave a target mRNA inhibition of 91%.

“TTATGAAATTATTGGT (sugars k2 d4 e3 k2 d5, PS)” showed a target mRNA inhibition (A431, 2 µM) of 39%.

On to “TTATGAAATTATTGGT (sugars kkdddddkekeddddd, PS)”, for which the target mRNA inhibition (A431, 2 µM) stood at 63%.

Turning to “TTCTATTAGAGGGCTA (sugars k2 d4 e4 k2 d4, PS)”, the target mRNA inhibition (A431, 2 µM) was found to be 76%.

Regarding TTCTATTGGGCCTCAG (sugars k4 d9 k3, PS), the target mRNA inhibition runs as follows: (A431, 0.0625 µM) 74%; (A431, 0.25 µM) 87%; (A431, 1 µM) 94%.

For the setting “A431, 2 µM”, “TTCTCATGGTACAGGA (sugars kkdddddkekeddddd, PS)” came in with a target mRNA inhibition of 78%.

On to “TTGTAAGTGCAACCAA (sugars k2 d4 e3 k2 d5, PS)”, for which, where the note is “A431, 2 µM”, the target mRNA inhibition was determined as 83%.

With “TTGTAAGTGCAACCAA (sugars k2 d4 e4 k2 d4, PS)”, the target mRNA inhibition (A431, 2 µM) turned out to be 70%.

Under “A431, 2 µM”, “TTGTAAGTGCAACCAA (sugars kkdddddkekeddddd, PS)” came in with a target mRNA inhibition of 81%.

For the sequence “TTTATACCAGTGTCTT (sugars k3 d4 k3 e1 d5, PS)”, the target mRNA inhibition (A431, 2 µM) is 80%.

Turning to “TTTATACCAGTGTCTT (sugars kkdddddkekeddddd, PS)”, the target mRNA inhibition (A431, 2 µM) worked out at 84%.

On to “TTTATACCAGTGTCTT (sugars kkddddekekeddddd, PS)”, for which the target mRNA inhibition (A431, 2 µM) was 90%.

Turning to TTTCATATTCACCCGA (sugars k4 d9 k3, PS), the target mRNA inhibition is, setting by setting: (A431, 0.0625 µM) 46%; (A431, 0.25 µM) 68%; (A431, 1 µM) 86%.

“TTTGTAAGTGCAACCA (sugars k3 d4 k3 e1 d5, PS)” displayed a target mRNA inhibition (A431, 2 µM) of 56%.

Consider “TTTGTAAGTGCAACCA (sugars kdddddkekekddddd, PS)”, for which the target mRNA inhibition reads like this: (A431, 0.0156 µM) 24%; (A431, 0.0625 µM) 58%; (A431, 0.25 µM) 86%; (A431, 1 µM) 96%; (A431, 2 µM) 99%.

For the sequence “TTTGTAAGTGCAACCA (sugars kkddddekekeddddd, PS)”, the target mRNA inhibition by setting is: (A431, 0.0156 µM) 29%; (A431, 0.0625 µM) 59%; (A431, 0.25 µM) 83%; (A431, 1 µM) 96%; (A431, 2 µM) 97%.

The sequence “TTTGTAAGTGCAACCA (sugars kkddddkekekddddd, PS)” came in with a target mRNA inhibition (A431, 2 µM) of 98%.

“TTTGTAAGTGCAACCA (sugars kkddddkekekkdddd, PS)”: the target mRNA inhibition (A431, 2 µM) is 87%.

Take “TTTGTAAGTGCAACCA (sugars kkkddddkekeddddd, PS)”: where the note is “A431, 2 µM”, the target mRNA inhibition was found to be 49%.

In the case of “TTTGTAAGTGCAACCA (sugars kkkddddkekekdddd, PS)”, under “A431, 2 µM”, the target mRNA inhibition worked out at 63%.

Regarding TTTTAGAAAGGACACG (sugars k4 d9 k3, PS), the target mRNA inhibition runs as follows: (A431, 0.0625 µM) 42%; (A431, 0.25 µM) 67%; (A431, 1 µM) 85%.

Consider TTTTCACCATAGCACG (sugars k4 d9 k3, PS), for which the target mRNA inhibition (A431, 0.0625 µM) stood at 33%; the target mRNA inhibition (A431, 0.25 µM) came out at 63%; the target mRNA inhibition (A431, 1 µM) came out at 85%.
